Reference: ChEMBL document CHEMBL5260839 (J Med Chem, 2019)
Activity calls are given as the source filed them. The rule behind the calls is not given here. Peptide text beside a SMILES is read from it. * marks the point of attachment. Cbz = O=C(OCc1ccccc1)*

Columns and labels:
[1] = target: T1, E3 ubiquitin-protein ligase Mdm2 (Homo sapiens, UniProt Q00987); experiment: Inhibition of MDM2 in human RS4-11 cells harbouring wildtype p53 assessed as fold change in p53 accumulation at 3 uM incubated for 4 hrs by Western blot analysis (reference value: 1); assay type: cell-based
Target sequence in this assay (Q00987 whole entry, looked up): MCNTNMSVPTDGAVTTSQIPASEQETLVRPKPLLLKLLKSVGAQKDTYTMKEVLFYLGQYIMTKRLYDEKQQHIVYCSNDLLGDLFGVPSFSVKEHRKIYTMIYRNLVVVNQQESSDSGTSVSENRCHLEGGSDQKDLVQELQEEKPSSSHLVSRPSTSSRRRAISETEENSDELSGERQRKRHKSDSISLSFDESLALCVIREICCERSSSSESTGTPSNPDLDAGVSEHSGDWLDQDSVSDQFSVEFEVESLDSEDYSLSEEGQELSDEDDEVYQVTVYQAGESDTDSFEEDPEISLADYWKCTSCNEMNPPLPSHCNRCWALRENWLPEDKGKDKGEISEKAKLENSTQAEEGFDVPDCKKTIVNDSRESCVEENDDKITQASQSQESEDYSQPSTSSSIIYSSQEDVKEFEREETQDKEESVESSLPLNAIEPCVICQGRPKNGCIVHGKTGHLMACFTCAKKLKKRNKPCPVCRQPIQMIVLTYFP

[2] = target: T1, E3 ubiquitin-protein ligase Mdm2; experiment: Inhibition of MDM2 in human RS4-11 cells harbouring wildtype p53 assessed as fold change in MDM2 level at 3 uM incubate for 4 hrs by Western blot analysis (reference value: […]); assay type: cell-based
Target sequence in this assay (Q00987 whole entry, looked up): as above

[3] = tested on: RS4-11; experiment: Potency index, ratio of MI-1061 IC50 to test compound IC50 for inhibition of cell growth in human RS4-11 cells incubated for 4 days by lactate dehydrogenase based WST-8 assay; assay type: functional; settings: time 4 day
[4] = tested on: RS4-11; experiment: cells; settings: Homo sapiens, RS4-11, 96 h
[5] = tested on: RS4-11; experiment: Potency index, ratio of MI-1242 IC50 to test compound IC50 for inhibition of cell growth in human RS4-11 cells incubated for 4 days by lactate dehydrogenase based WST-8 assay; assay type: functional; settings: time 4 day
[6] = target: T1, E3 ubiquitin-protein ligase Mdm2; experiment: Inhibition of MDM2 in human RS4-11 cells harbouring wildtype p53 assessed as fold change in p53 accumulation at 1 uM incubated for 4 hrs by Western blot analysis (reference value: 1); assay type: cell-based
Target sequence in this assay (Q00987 whole entry, looked up): as above

[7] = target: T1, E3 ubiquitin-protein ligase Mdm2; experiment: Inhibition of MDM2 in human RS4-11 cells harbouring wildtype p53 assessed as fold change in MDM2 level at 1 uM incubate for 4 hrs by Western blot analysis (reference value: […]); assay type: cell-based
Target sequence in this assay (Q00987 whole entry, looked up): as above

[8] = tested on: MV4-11; experiment: Inhibition of cell growth in human MV4-11 cells incubated for 4 days in the presence of lenalidomide by Lactate dehydrogenase based WST-8 assay; assay type: functional; settings: time 4.0 day
[9] = tested on: MONO-MAC-6; experiment: cells; settings: Homo sapiens, MONO-MAC-6, 96 h
[10] = tested on: MOLM-13; experiment: cells; settings: Homo sapiens, MOLM-13, 96 h
[11] = Toxicity in mouse xenografted with human RS4-11 cells assessed as signs of toxicity at 100 mg/kg, po administered once daily for 5 days; assay type: organism-based; settings: in vivo, 120 h, time 5 day
[12] = tested on: RS4-11; experiment: Induction of apoptosis in human RS4-11 cells incubated for 24 hrs by Annexin-V/PI staining based flow cytometric analysis; assay type: functional, cell-based
[13] = tested on: SIG-M5; experiment: cells; settings: Homo sapiens, SIG-M5, 96 h
[14] = tested on: KG-1; experiment: cells; settings: Homo sapiens, KG-1, 96 h
[15] = tested on: RS4-11; experiment: Antitumor activity against human RS4-11 cells xenografted in mouse assessed as reduction in tumor growth at 100 mg/kg, po administered daily for 5 days starting from day 26; assay type: functional, organism-based; settings: time 5.0 day
[16] = tested on: RS4-11; experiment: Inhibition of cell growth in human RS4-11 cells incubated for 4 days in the presence of lenalidomide by Lactate dehydrogenase based WST-8 assay; assay type: functional; settings: time 4.0 day
[17] = Toxicity in mouse xenografted with human RS4-11 cells assessed as weight loss at 100 mg/kg, po administered once daily for 5 days; assay type: organism-based; settings: in vivo, 120 h, time 5 day
[18] = target: T1, E3 ubiquitin-protein ligase Mdm2; experiment: Binding affinity to recombinant human MDM2 (1 to 118 residues) assessed as inhibition constant using FAM-tagged p-53 based peptide as substrate by fluorescence polarization based assay
Target sequence in this assay (Q00987 whole entry): as the sequence (Q00987 whole entry, looked up) above

[19] = target: T1, E3 ubiquitin-protein ligase Mdm2; experiment: Inhibition of MDM2 in human RS4-11 cells harbouring wildtype p53 assessed as fold change in MDM2 level at 10 uM incubate for 4 hrs by Western blot analysis (reference value: […]); assay type: cell-based
Target sequence in this assay (Q00987 whole entry, looked up): as above

[20] = target: T1, E3 ubiquitin-protein ligase Mdm2; experiment: Inhibition of MDM2 in human RS4-11 cells harbouring wildtype p53 assessed as fold change in p53 accumulation at 10 uM incubated for 4 hrs by Western blot analysis (reference value: […]); assay type: cell-based
Target sequence in this assay (Q00987 whole entry, looked up): as above

| IC50 [4] [nM] | SMILES | other results |
| --- | --- | --- |
| – | NS(=O)(=O)OC[C@@H]1C[C@@H](n2ccc3c(N[C@H]4CCc5ccccc54)ncnc32)C[C@@H]1O | fold change (FC) [1]: 5.1; fold change (FC) [2]: 2.4 |
| 10 | O=C1CCC(N2C(=O)c3cccc(NCCCCNC(=O)c4ccc(NC(=O)[C@@H]5NC6(CCCCC6)[C@@]6(C(=O)Nc7cc(Cl)ccc76)[C@H]5c5cccc(Cl)c5F)cc4)c3C2=O)C(=O)N1 (some centres not stated) | Ratio IC50 [3]: 10; Ratio IC50 [5]: 10 |
| 5 | O=C1CCC(N2Cc3ccc(CC#CCCCNC(=O)c4ccc(NC(=O)[C@@H]5NC6(CCCCC6)[C@@]6(C(=O)Nc7cc(Cl)ccc76)[C@H]5c5cccc(Cl)c5F)cc4)cc3C2=O)C(=O)N1 (some centres not stated) | – |
| 29 | O=C1CCC(N2C(=O)c3cccc(CCCCCNC(=O)c4ccc(NC(=O)[C@@H]5NC6(CCCCC6)[C@@]6(C(=O)Nc7cc(Cl)ccc76)[C@H]5c5cccc(Cl)c5F)cc4)c3C2=O)C(=O)N1 (some centres not stated) | – |
| 1200 | CN1C(=O)CCC(N2Cc3c(C#CCCCNC(=O)c4ccc(NC(=O)[C@@H]5NC6(CCCCC6)[C@@]6(C(=O)Nc7cc(Cl)ccc76)[C@H]5c5cccc(Cl)c5F)cc4)cccc3C2=O)C1=O (some centres not stated) | – |
| 3.9 | O=C1CCC(N2Cc3c(C#CCCNC(=O)c4ccc(NC(=O)[C@@H]5NC6(CCCCC6)[C@@]6(C(=O)Nc7cc(Cl)ccc76)[C@H]5c5cccc(Cl)c5F)cc4)cccc3C2=O)C(=O)N1 (some centres not stated) | – |
| > 10000 | O=C1CCC(N2Cc3c(C#CCCCNC(=O)c4ccc(NC(=O)[C@H]5NC6(CCCCC6)[C@]6(C(=O)Nc7cc(Cl)ccc76)[C@@H]5c5cccc(Cl)c5F)cc4)cccc3C2=O)C(=O)N1 (some centres not stated) | – |
| 7 | O=C1CCC(N2C(=O)c3cccc(NCCOCCOCCNC(=O)c4ccc(NC(=O)[C@@H]5NC6(CCCCC6)[C@@]6(C(=O)Nc7cc(Cl)ccc76)[C@H]5c5cccc(Cl)c5F)cc4)c3C2=O)C(=O)N1 (some centres not stated) | Ratio IC50 [3]: 10; Ratio IC50 [5]: 10 |
| 15 | O=C1CCC(N2C(=O)c3cccc(NCCNC(=O)c4ccc(NC(=O)[C@@H]5NC6(CCCCC6)[C@@]6(C(=O)Nc7cc(Cl)ccc76)[C@H]5c5cccc(Cl)c5F)cc4)c3C2=O)C(=O)N1 (some centres not stated) | – |
| 22 | O=C1CCC(N2C(=O)c3cccc(NCCCCCCNC(=O)c4ccc(NC(=O)[C@@H]5NC6(CCCCC6)[C@@]6(C(=O)Nc7cc(Cl)ccc76)[C@H]5c5cccc(Cl)c5F)cc4)c3C2=O)C(=O)N1 (some centres not stated) | – |
| – | CC(C)C[C@H](NC(=O)[C@H](CCc1ccccc1)NC(=O)CN1CCOCC1)C(=O)N[C@@H](Cc1ccccc1)C(=O)N[C@@H](CC(C)C)C(=O)[C@@]1(C)CO1 | fold change (FC) [6]: 8.5; fold change (FC) [7]: 3.6 |
| – | O=C(O)c1ccc(NC(=O)[C@@H]2NC3(CCCCC3)[C@@]3(C(=O)Nc4cc(Cl)ccc43)[C@H]2c2cccc(Cl)c2F)cc1 | inhibition [8]: Active; IC50 [9]: > 10000 nM; IC50 [10]: 76.8 nM; Activity [11]: Non-Toxic; Activity [12]: Dose-Dependent Effect; IC50 [13]: 106 nM; IC50 [14]: > 10000 nM; Activity [15]: Active; inhibition [16]: Active; Activity [17]: Non-Toxic |
| 8 | O=C1CCC(N2C(=O)c3cccc(NCCOCCNC(=O)c4ccc(NC(=O)[C@@H]5NC6(CCCCC6)[C@@]6(C(=O)Nc7cc(Cl)ccc76)[C@H]5c5cccc(Cl)c5F)cc4)c3C2=O)C(=O)N1 (some centres not stated) | – |
| 68.4 | O=C1CCC(N2C(=O)c3cccc(NC(=O)c4ccc(NC(=O)[C@@H]5NC6(CCCCC6)[C@@]6(C(=O)Nc7cc(Cl)ccc76)[C@H]5c5cccc(Cl)c5F)cc4)c3C2=O)C(=O)N1 (some centres not stated) | – |
| 12 | O=C1CCC(N2C(=O)c3cccc(NCCCCCNC(=O)c4ccc(NC(=O)[C@@H]5NC6(CCCCC6)[C@@]6(C(=O)Nc7cc(Cl)ccc76)[C@H]5c5cccc(Cl)c5F)cc4)c3C2=O)C(=O)N1 (some centres not stated) | – |
| 5 | O=C1CCC(N2Cc3cc(CC#CCCCNC(=O)c4ccc(NC(=O)[C@@H]5NC6(CCCCC6)[C@@]6(C(=O)Nc7cc(Cl)ccc76)[C@H]5c5cccc(Cl)c5F)cc4)ccc3C2=O)C(=O)N1 (some centres not stated) | – |
| 5 | O=C1CCC(N2Cc3cccc(NCCCCNC(=O)c4ccc(NC(=O)[C@@H]5NC6(CCCCC6)[C@@]6(C(=O)Nc7cc(Cl)ccc76)[C@H]5c5cccc(Cl)c5F)cc4)c3C2=O)C(=O)N1 (some centres not stated) | – |
| 89 | CNC(=O)c1ccc(NC(=O)[C@@H]2NC3(CCCCC3)[C@@]3(C(=O)Nc4cc(Cl)ccc43)[C@H]2c2cccc(Cl)c2F)cc1 | Ki [18]: 2.7 nM |
| 9 | O=C1CCC(N2C(=O)c3cccc(NCCCNC(=O)c4ccc(NC(=O)[C@@H]5NC6(CCCCC6)[C@@]6(C(=O)Nc7cc(Cl)ccc76)C5c5cccc(Cl)c5F)cc4)c3C2=O)C(=O)N1 (single isomer, unassigned) | – |
| – | CC(C)C[C@@H](C=O)NC(=O)[C@H](CC(C)C)NC(=O)[C@H](CC(C)C)NC(=O)OCc1ccccc1 (Cbz-Leu-Leu-Leu-aldehyde) | fold change (FC) [19]: 2.9; fold change (FC) [20]: 6.9 |
| 100 | O=C1CCC(N2C(=O)c3cccc(NCCCCCCCNC(=O)c4ccc(NC(=O)[C@@H]5NC6(CCCCC6)[C@@]6(C(=O)Nc7cc(Cl)ccc76)[C@H]5c5cccc(Cl)c5F)cc4)c3C2=O)C(=O)N1 (some centres not stated) | – |
| 5 | O=C1CCC(N2C(=O)c3cccc(NCCOCCOCCOCCNC(=O)c4ccc(NC(=O)[C@@H]5NC6(CCCCC6)[C@@]6(C(=O)Nc7cc(Cl)ccc76)[C@H]5c5cccc(Cl)c5F)cc4)c3C2=O)C(=O)N1 (some centres not stated) | – |

| SMILES | IC50 [4] [nM] | other results |
| --- | --- | --- |
| Cc1ncsc1-c1ccc([C@H](C)NC(=O)[C@@H]2C[C@@H](O)CN2C(=O)[C@@H](NC(=O)CCCOCCOCCOCCNC(=O)c2ccc(NC(=O)[C@@H]3NC4(CCCCC4)[C@@]4(C(=O)Nc5cc(Cl)ccc54)[C@H]3c3cccc(Cl)c3F)cc2)C(C)(C)C)cc1 | 340 | – |
| Cc1ncsc1-c1ccc([C@H](C)NC(=O)[C@@H]2C[C@@H](O)CN2C(=O)[C@@H](NC(=O)CCCCNC(=O)c2ccc(NC(=O)[C@@H]3NC4(CCCCC4)[C@@]4(C(=O)Nc5cc(Cl)ccc54)[C@H]3c3cccc(Cl)c3F)cc2)C(C)(C)C)cc1 | 1200 | – |
| Cc1ncsc1-c1ccc([C@H](C)NC(=O)[C@@H]2C[C@@H](O)CN2C(=O)[C@@H](NC(=O)CCOCCOCCNC(=O)c2ccc(NC(=O)[C@@H]3NC4(CCCCC4)[C@@]4(C(=O)Nc5cc(Cl)ccc54)[C@H]3c3cccc(Cl)c3F)cc2)C(C)(C)C)cc1 | 500 | – |
